Counter-ions that a name gives are not always drawn. Like-named read-outs stand apart in the source and are kept apart here.
Key:
[1] = molecular target: T1, tubulin (Sus scrofa, UniProt P02550+P02554); test: Evaluation of the inhibition of tubulin polymerization (turbidimetry); type: biochemical, pig; conditions: tubulin 10 μm (1 mg/ml), 37° C., turbidity at 350 nm; concentration that inhibits the rate of polymerization by 50%; read-out: Inhibition of tubulin polymerization IC 50 (μm)
T1 construct: Tubulin is purified from pig brain according to published methods; from tissue; host or cells: pig brain
T1 sequence (P02550 whole entry): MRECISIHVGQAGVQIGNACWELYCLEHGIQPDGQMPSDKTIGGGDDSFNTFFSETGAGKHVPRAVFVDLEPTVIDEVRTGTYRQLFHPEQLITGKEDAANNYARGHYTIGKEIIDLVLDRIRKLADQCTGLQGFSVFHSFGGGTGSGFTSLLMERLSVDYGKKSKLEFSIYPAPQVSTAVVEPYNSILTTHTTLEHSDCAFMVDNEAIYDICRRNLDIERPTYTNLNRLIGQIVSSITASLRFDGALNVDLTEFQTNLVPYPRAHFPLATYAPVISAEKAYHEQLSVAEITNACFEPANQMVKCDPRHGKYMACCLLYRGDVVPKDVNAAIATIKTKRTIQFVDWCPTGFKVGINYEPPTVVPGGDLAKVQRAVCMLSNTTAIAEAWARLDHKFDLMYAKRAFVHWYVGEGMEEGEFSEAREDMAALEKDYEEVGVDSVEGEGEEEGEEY
T1 sequence (P02554 whole entry): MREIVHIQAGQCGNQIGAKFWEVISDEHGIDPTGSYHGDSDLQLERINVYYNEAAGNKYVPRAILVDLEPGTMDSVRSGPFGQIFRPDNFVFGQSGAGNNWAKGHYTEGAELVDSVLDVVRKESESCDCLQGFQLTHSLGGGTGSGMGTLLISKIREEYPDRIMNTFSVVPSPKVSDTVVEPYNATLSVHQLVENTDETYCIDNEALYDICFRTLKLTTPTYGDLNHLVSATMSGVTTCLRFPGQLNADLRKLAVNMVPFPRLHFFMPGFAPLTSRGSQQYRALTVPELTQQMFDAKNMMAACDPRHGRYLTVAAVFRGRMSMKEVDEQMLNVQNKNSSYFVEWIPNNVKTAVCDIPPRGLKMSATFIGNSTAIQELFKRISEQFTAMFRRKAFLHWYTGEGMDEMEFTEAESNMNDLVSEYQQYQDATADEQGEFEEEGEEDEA
Outline: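 Pig brain tubulin (>95% pure), 10 μm in MES pH 6.8/30% glycerol buffer plus 1 mM GTP and 6 mM MgCl2, with compound at 0.5–10 μm added before polymerization. Polymerization triggered by shift from 6° C to 37° C, followed by turbidity at 350 nm; IC50 is 50% inhibition of polymerization rate.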

[2] = tested on: HCT116 cells; test: Inhibition of proliferation of the human colon tumor line HCT116 ([14C]-thymidine incorporation); type: cell-based; conditions: Homo sapiens, read-out: Inhibition of HCT116 proliferation IC 50 (μm)
Procedure: The proliferation of HCT116 cells is evaluated by measuring the incorporation of [^14C]-thymidine in the following manner. The HCT 116 cells (obtained from the ATCC) are cultured in a DMEM medium (Gibco) containing 10% fetal calf serum and antibiotics (1% penicillin, 1% streptomycin). To perform the proliferation test, the cells are inoculated in cytostar 96-well microplates (Amersham), at a rate of 5000 cells per well. [^14C]-thymidine (0.1 μCi/well) and the products to be evaluated are then added. Variable concentrations of products up to 10 μm are used; the DMSO (solvent used to dissolve the products) should not exceed 0.5% in the medium. 48 hours after incubation at 37° C., the radioactivity incorporated into the cells is measured by counting the plate in a TRI-LUX counter (Wallac). The IC50 is defined as the concentration of product that reduces the radioactivity by 50% compared with an untreated control. A product whose IC50 is less than 3 μm is considered cytotoxic.

[3] = HCT-116, 48 h, 48 hours at 37° C.

Structure (SMILES)	IC50 [1] [µM]	IC50 [2, 3] [µM]	IC50 ([2]; HCT-116, 48 hours at 37° C.) [µM]
Cc1cc(C(=O)N2CCN(c3cccc(C(F)(F)F)c3)CC2)n(-c2ccc(F)cc2)n1 [3/23]	3	0.434	
Cc1cccc(N2CCN(C(=O)c3cc(C)nn3-c3ccc(Cl)cc3)CC2)c1 [3/74]	7.5	0.298	
COc1ccccc1N1CCN(C(=O)c2cc(C)nn2-c2cccc(F)c2)CC1 [3/90]	3	0.033	
COc1cccc(-n2nc(C)cc2C(=O)N2CCN(c3ccc4c(c3)OCCO4)CC2)c1 [3/140]	< 25	2.97	
COc1ccc(Cl)cc1N1CCN(C(=O)c2cc(C)nn2-c2ccc(Cl)cc2)CC1 [3/75]	17	0.468	
Cc1cccc(-n2nc(C)cc2C(=O)N2CCN(c3ccc(Cl)cc3)CC2)c1 [3/52]	13	0.256	
Cc1cc(C(=O)N2CCN(c3ccc(C)c(C)c3)CC2)n(-c2cccc(F)c2)n1 [3/17]	3.5	0.159	
Cc1cc(C(=O)N2CCN(c3ccccc3C)CC2)n(-c2ccccc2F)n1 [3/87]	15	0.238	
COc1cccc(-n2nc(C)cc2C(=O)N2CCN(c3cccc4ccccc34)CC2)c1 [3/138]	< 25	20	
Cc1cccc(-n2nc(C)cc2C(=O)N2CCN(c3cccc4ccccc34)CC2)c1 [3/32]	3	0.556	
Cc1cc(C(=O)N2CCN(c3ccccc3C(F)(F)F)CC2)n(-c2cccc(Cl)c2)n1 [3/128]	12	0.901	
Cc1cccc(-n2nc(C)cc2C(=O)N2CCN(c3ccccc3C)CC2)c1 [3/48]	5	0.118	
Cc1cc(C(=O)N2CCN(c3cccc(C(F)(F)F)c3)CC2)n(-c2cccc(Cl)c2)n1 [3/121]	3.3	0.051	
Cc1cc(C(=O)N2CCN(c3cccc4ccccc34)CC2)n(-c2ccccc2)n1 [3/13]	6	0.466	
COc1ccccc1N1CCN(C(=O)c2cc(C)nn2-c2ccccc2)CC1 [3/7]	5.6	0.04	
Cc1cc(C(=O)N2CCN(c3ccccc3)CC2)n(-c2cccc(F)c2)n1 [3/89]	2.2	0.014	
Cc1cc(CN2CCN(c3cccc(Cl)c3)CC2)n(-c2ccccc2)n1 [Example E14, [4-(3-chlorophenyl)piperazin-1-yl](5-methyl-2-phenyl-2H-pyrazol-3-yl)methane]	12		3.08
Cc1cccc(N2CCN(C(=O)c3cc(C)nn3-c3cccc(C)c3)CC2)c1 [3/50]	1.5	0.0061	
O=C(c1ccnn1-c1ccccc1)N1CCN(c2cccc(Cl)c2)CC1 [Example 5, [4-(3-Chlorophenyl)piperazin-1-yl](2-phenyl-2H-pyrazol-3-yl)methanone]	1.2	0.0041	
CCc1ccccc1N1CCN(C(=O)c2cc(C)nn2-c2cccc(F)c2)CC1 [3/95]	3	0.164	
COc1cccc(-n2nc(C)cc2C(=O)N2CCN(c3cccc(C)c3C)CC2)c1 [3/135]	6	0.321	
COc1cccc(N2CCN(C(=O)c3cc(C)nn3-c3cccc(OC)c3)CC2)c1 [3/82]	1.2	0.0083	
CSc1ccccc1N1CCN(C(=O)c2cc(C)nn2-c2cccc(Cl)c2)CC1 [3/26]	1.5	0.09	
Cc1cc(C(=O)N2CCN(c3ccc(F)cc3)CC2)n(-c2cccc(F)c2)n1 [3/92]	12.5	0.158	
Cc1cc(C(=O)N2CCN(c3cccc(Cl)c3Cl)CC2)n(-c2cccc(Cl)c2)n1 [3/125]	12.5	0.148	
Cc1cccc(N2CCN(C(=O)c3cc(C)nn3-c3ccccc3)CC2)n1 [3/150]	1.1	0.0055	
COc1cccc(-n2nc(C)cc2C(=O)N2CCN(c3cc(Cl)ccc3C)CC2)c1 [3/4]	1.8	0.389	
Cc1cc(C(=O)N2CCN(c3ccc(Cl)c(Cl)c3)CC2)n(-c2cccc(F)c2)n1 [3/93]	1.7	0.032	
Cc1cc(C(=O)N2CCN(c3ccc4c(c3)OCCO4)CC2)n(-c2ccccc2)n1 [3/14]	15	0.352	

More lines, main results first:

IC50 [1] [µM]	IC50 [2, 3] [µM]	Structure (SMILES)	IC50 ([2]; HCT-116, 48 hours at 37° C.) [µM]
2.1	0.104	Cc1cc(C(=O)N2CCN(c3ccc(Br)c(Cl)c3)CC2)n(-c2ccccc2)n1 [Example E59, [4-(4-Bromo-3-chlorophenyl)piperazin-1-yl](5-methyl-2-phenyl-2H-pyrazol-3-yl)methanone]	
1.9	0.0064	Cc1cc(C(=O)N2CCN(c3cccc(Cl)c3)CC2)n(-c2ccccn2)n1 [Example E22, [4-(3-Chlorophenyl)piperazin-1-yl](5-methyl-2-pyrid-2-yl-2H-pyrazol-3-yl)-methanone]	
1.4	0.223	COc1cc(OC)cc(N2CCN(C(=O)c3cc(NCc4ccccc4)nn3-c3ccccc3)CC2)c1 [Example E98, (5-Benzylamino-2-phenyl-2H-pyrazol-3-yl)[4-(3,5-dimethoxyphenyl)piperazin-1-yl]methanone]	
2	0.0377	Cc1cc(C(=O)N2CCN(c3cccc(Cl)c3)CC2)n(-c2nccs2)n1 [Example E37, [4-(3-Chlorophenyl)piperazin-1-yl](5-methyl-2-thiazol-2-yl-2H-pyrazol-3-yl)-methanone]	
6.4	0.135	Cc1cc(C(=O)N2CCN(c3cccc(S(C)(=O)=O)c3)CC2)n(-c2ccccc2)n1 [Example E26, [4-(3-Methanesulfonylphenyl)piperazin-1-yl](5-methyl-2-phenyl-2H-pyrazol-3-yl)methanone]	
1.5	0.0001	Cc1cc(C(=O)N2CCN(c3cc(Cl)cc(Cl)c3)CC2)n(-c2ccccc2)n1 [Example E2, [4-(3,5-Dichlorophenyl)piperazin-1-yl](5-methyl-2-phenyl-2H-pyrazol-3-yl)methanone]	
3.7	1.83	O=C(c1cc(-c2ccccc2)nn1-c1ccccc1)N1CCN(c2cccc(Cl)c2)CC1 [Example E66, [4-(3-Chlorophenyl)piperazin-1-yl](2,5-diphenyl-2H-pyrazol-3-yl)methanone]	
2.02	0.0063	COc1cc(OC)cc(N2CCN(C(=O)c3cc(N4CCCC4)nn3-c3ccccc3)CC2)c1 [Example E93, [4-(3,5-Dimethoxyphenyl)piperazin-1-yl][2-phenyl-5-(pyrrolidin-1-yl)-2H-pyrazol-3-yl]methanone]	
2.17	1.46	Cc1cc(C(=O)N2CCN(c3cccc(Cl)c3)CC2)n(-c2c(F)c(F)cc(F)c2F)n1 [Example E43, [4-(3-Chlorophenyl)piperazin-1-yl][5-methyl-2-(2,3,5,6-tetrafluorophenyl)-2H-pyrazol-3-yl]methanone]	
1	0.0024	COc1cc(OC)cc(N2CCN(C(=O)c3cc(N)nn3-c3ccccc3)CC2)c1 [Example E99, (5-Amino-2-phenyl-2H-pyrazol-3-yl)[4-(3,5-dimethoxyphenyl)piperazin-1-yl]methanone]	
1.68	0.236	Cc1cc(C(=O)N2CCN(c3cccc(Cl)c3)CC2)n(-c2cc(Cl)ccc2Cl)n1 [Example E44, [4-(3-Chlorophenyl)piperazin-1-yl][2-(2,5-dichlorophenyl)-5-methyl-2H-pyrazol-3-yl]methanone]	
3.4	0.0606	CCOC(=O)c1cccc(N2CCN(C(=O)c3cc(C)nn3-c3ccccc3)CC2)c1 [Example E28, ethyl ester of 3-[4-(5-methyl-2-phenyl-2H-pyrazole-3-carbonyl)piperazin-1-yl]benzoic acid]	
0.87	0.0068	C/C=C/c1cc(C(=O)N2CCN(c3cc(OC)cc(OC)c3)CC2)n(-c2ccccc2)n1 [Example E86]	
20	0.939	Cc1cc(C(=O)N2CCN(c3cccc(Cl)c3)CC2)n(-c2cnccn2)n1 [Example E36, [4-(3-Chlorophenyl)piperazin-1-yl](5-methyl-2-pyrazin-2-yl-2H-pyrazol-3-yl)-methanone]	
1.3	2.3	COc1cc(OC)cc(N2CCN(C(=O)c3cccn3-c3ccccc3)CC2)c1 [Example E51, [4-(3,5-Dimethoxyphenyl)piperazin-1-yl](1-phenyl-1H-pyrrol-2-yl)methanone hydrochloride]	
0.29	0.0015	COc1cc(OC)cc(N2CCN(C(=O)c3cc(C)nn3-c3ccccc3)CC2)c1 [Example E20, [4-(3,5-Dimethoxyphenyl)piperazin-1-yl](5-methyl-2-phenyl-2H-pyrazol-3-yl)-methanone]	
0.5	0.0041	COc1cc(OC)cc(N2CCN(C(=O)c3cc(C=O)nn3-c3ccccc3)CC2)c1 [Example E100, 5-[4-(3,5-Dimethoxyphenyl)piperazine-1-carbonyl]-1-phenyl-1H-pyrazole-3-carboxaldehyde]	

Reference: patent publication US20050130989A1, “N-arylheteroaromatic products compositions containing them and use thereof” (Aventis Pharma S. A., priority 2003, published 2005)
